{
  "source": "patent US9617289B2",
  "about": "“RSV antiviral compounds” (JANSSEN R&D IRELAND, priority 2012, dated 2017)",
  "data": [
    {"test_system": "rgRSV224 virus", "assay": "Antiviral activity: inhibition of rgRSV224 (GFP-expressing RSV) replication in HeLa cells", "format": "cell-based, respiratory syncytial virus", "settings": "human respiratory syncytial virus, HeLa, 72 h, read-out: RSV-wt_pEC50", "in_short": "(§1)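 HeLa cells infected with GFP-expressing rgRSV224 at MOI 0.02 alongside 4-fold compound dilutions in duplicate (0.5% DMSO). Incubated 3 days at 37 °C; EC50 taken as 50% inhibition of GFP expression by laser microscopy. CC50 measured in parallel uninfected cells by ATP content after 3 days; SI = CC50/EC50.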", "units": {"EC50": "nM"}, "values": [
      {"compound": "CCOP(=O)(OCC)N1CCC2(CC1)C(=O)N(Cc1nc3cc(Cl)ccc3n1CCCC#N)c1cnccc12", "note": "[Compound 115, Diethyl (1′-{[5-chloro-1-(3-cyanopropyl)-1H-benzimidazol-2-yl]methyl}-2′-oxo-1′,2′-dihydro-1H-spiro[piperidine-4,3′-pyrrolo[2,3-c]pyridin]-1-yl)phosphonate]", "EC50": 0.0692}
    ]},
    {"test_system": "rgRSV224 virus", "assay": "Antiviral activity: inhibition of rgRSV224 (GFP-expressing RSV) replication in HeLa cells", "format": "cell-based, respiratory syncytial virus", "settings": "human respiratory syncytial virus, HeLa, 72 h, read-out: RSV-wt_pEC50, rgRSV224 (MOI=0.02) in HeLa cells, GFP expression three days post-virus exposure", "in_short": "as §1", "units": {"EC50": "nM"}, "values": [
      {"compound": "N#CCCCn1c(CN2C(=O)C3(CCN(S(=O)(=O)C4CC4)CC3)c3ccncc32)nc2cc(Cl)ccc21", "note": "[Compound 112, 4-(5-Chloro-2-{[1-(cyclopropylsulfonyl)-2′-oxospiro-[piperidine-4,3′-pyrrolo[2,3-c]pyridin]-1′(2′H)-yl]methyl}-1H-benzimidazol-1-yl)butanenitrile]", "EC50": 0.0251},
      {"compound": "CC(C)(C)OC(=O)N1CCC2(CC1)C(=O)N(Cc1cc3ccccc3n1CCCC(F)(F)F)c1cnccc12", "note": "[Compound 113, tert-Butyl 2′-oxo-1′-{[1-(4,4,4-trifluorobutyl)-1H-indol-2-yl]methyl}-1′,2′-dihydro-1H-spiro[piperidine-4,3′-pyrrolo[2,3-c]pyridine]-1-carboxylate]", "EC50": 66.1},
      {"compound": "CC(O)(C(=O)N1CCC2(CC1)C(=O)N(Cc1nc3cc(Cl)ccc3n1CCCC#N)c1cnccc12)C(F)(F)F", "note": "(stereo not shown) [Compound 116, 4-(5-Chloro-2-{[2′-oxo-1-(3,3,3-trifluoro-2-hydroxy-2-methylpropanoyl)spiro[piperidine-4,3′-pyrrolo[2,3-c]pyridin]-1′(2′H)-yl]methyl}-1H-benzimidazol-1-yl)butanenitrile]", "EC50": 0.0708},
      {"compound": "CNC(=O)O[C@H]1C[C@@]2(C1)C(=O)N(Cc1cc3cc(Cl)ccc3n1CCCCF)c1ccccc12", "note": "[Compound 120, (1r,3r)-1′-((5-chloro-1-(4-fluorobutyl)-1H-indol-2-yl)methyl)-2′-oxospiro[cyclobutane-1,3′-indolin]-3-yl methylcarbamate]", "EC50": 2.4},
      {"compound": "CC(C)(O)C(=O)N1CC[C@@]2(C1)C(=O)N(Cc1nc3cc(Cl)ccc3n1CCCS(C)(=O)=O)c1ccccc12", "note": "[Compound 121, (R)-1-({5-Chloro-1-[3-(methylsulfonyl)propyl]-1H-benzimidazol-2-yl}methyl)-1′-(2-hydroxy-2-methylpropanoyl)spiro[indole-3,3′-pyrrolidin]-2(1H)-one]", "EC50": 8.51},
      {"compound": "CC(C)(O)C(=O)N1CC[C@]2(C1)C(=O)N(Cc1nc3cc(Cl)ccc3n1CCCS(C)(=O)=O)c1ccccc12", "note": "[Compound 122, (S)-1-((5-chloro-1-(3-(methylsulfonyl)propyl)-1H-benzo[d]imidazol-2-yl)methyl)-1′-(2-hydroxy-2-methylpropanoyl)spiro[indoline-3,3′-pyrrolidin]-2-one]", "EC50": 8.32},
      {"compound": "CNC(=O)O[C@H]1C[C@@]2(C1)C(=O)N(Cc1cc3cc(Cl)ccc3n1CCCC#N)c1ccccc12", "note": "[Compound 123, (1r,3r)-1′-((5-chloro)-1-(3-cyanopropyl)-1H-indol-2-yl)methyl)-2′-oxospiro[cyclobutane-1,3′-indolin]-3-yl methylcarbamate]", "EC50": 0.339},
      {"compound": "N#CCCCn1c(CN2c3ccccc3[C@]3(C[C@H](NC(=O)OC4CC4)C3)C2=O)nc2cc(Cl)ccc21", "note": "[Compound 125, cyclopropyl ((1s,3s)-1′-((5-chloro-1-(3-cyanopropyl)-1H-benzo[d]imidazol-2-yl)methyl)-2′-oxospiro[cyclobutane-1,3′-indolin]-3-yl)carbamate]", "EC50": 0.288},
      {"compound": "N#CCCCn1c(CN2c3ccccc3[C@]3(C[C@@H](NC(=O)OC4CC4)C3)C2=O)nc2cc(Cl)ccc21", "note": "[Compound 126, cyclopropyl ((1r,3r)-1-((5-chloro-1-(3-cyanopropyl)-1H-benzo[d]imidazol-2-yl)methyl)-2′-oxospiro[cyclobutane-1,3′-indolin]-3-yl)carbamate]", "EC50": 0.257},
      {"compound": "N#CCCCn1c(CN2C(=O)C3(CN(C(=O)[C@H](O)CO)C3)c3ccccc32)cc2cc(Cl)ccc21", "note": "[Compound 131, (R)-4-(5-chloro-2-((1-(2,3-dihydroxypropanoyl)-2′-oxospiro[azetidine-3,3′-indolin]-1′-yl)methyl)-1H-indol-1-yl)butanenitrile]", "EC50": 0.427},
      {"compound": "N#CCCCn1c(CN2C(=O)C3(CCN(C(=O)OC4CC4)CC3)c3ccncc32)cc2cc(Cl)ccc21", "note": "[Compound 132, Cyclopropyl 1′-{[5-chloro-1-(3-cyanopropyl)-1H-indol-2-yl]methyl}-2′-oxo-1′,2′-dihydro-1H-spiro[piperidine-4,3′-pyrrolo[2,3-c]pyridine]-1-carboxylate]", "EC50": 0.0646},
      {"compound": "CS(=O)(=O)CCCn1c(CN2c3ccccc3[C@]3(C[C@@H](OC(=O)N4CCOCC4)C3)C2=O)nc2cc(Cl)ccc21", "note": "[Compound 133, (1r,3r)-1′-((5-chloro-1-(3-(methylsulfonyl)propyl)-1H-benzo[d]imidazol-2-yl)methyl)-2′-oxospiro[cyclobutane-1,3′-indolin]-3-yl morpholine-4-carboxylate]", "EC50": 0.141},
      {"compound": "CS(=O)(=O)CCCn1c(CN2C(=O)C3(CNC3)c3ccccc32)cc2cc(Cl)ccc21", "note": "[Compound 134, 1′-({5-Chloro-1-[3-(methylsulfonyl)propyl]-1H-indol-2-yl}methyl)spiro[azetidine-3,3′-indol]-2′(1′H)-one]", "EC50": 2},
      {"compound": "COC(=O)N[C@H]1C[C@]2(C1)C(=O)N(Cc1nc3cc(Cl)ccc3n1CCCC#N)c1ccccc12", "note": "[Compound 135, methyl ((1s,3s)-1′-((5-chloro-1-(3-cyanopropyl)-1H-benzo[d]imidazol-2-yl)methyl)-2′-oxospiro[cyclobutane-1,3′-indolin]-3-yl)carbamate]", "EC50": 0.0955},
      {"compound": "COC(=O)N[C@H]1C[C@@]2(C1)C(=O)N(Cc1nc3cc(Cl)ccc3n1CCCC#N)c1ccccc12", "note": "[Compound 136, methyl ((1r,3r)-1′-((5-chloro-1-(3-cyanopropyl)-1H-benzo[d]imidazol-2-yl)methyl)-2′-oxospiro[cyclobutane-1,3′-indolin]-3-yl)carbamate]", "EC50": 0.245},
      {"compound": "N#CCCCn1c(CN2C(=O)C3(CN(C(=O)C4(O)CC4)C3)c3ccccc32)cc2cc(Cl)ccc21", "note": "[Compound 137]", "EC50": 0.107},
      {"compound": "CC(C)(O)C(=O)N1CCC2(C1)C(=O)N(Cc1nc3cc(Cl)ccc3n1CCCS(C)(=O)=O)c1ccccc12", "note": "(stereo not shown) [Compound 138, 1-((5-chloro-1-(3-(methylsulfonyl)propyl)-1H-benzo[d]imidazol-2-yl)methyl)-1′-(2-hydroxy-2-methylpropanoyl)spiro[indoline-3,3′-pyrrolidlin]-2-one]", "EC50": 2.14},
      {"compound": "N#CCCCn1c(CN2c3ccccc3[C@]3(C[C@@H](N)C3)C2=O)nc2cc(Cl)ccc21", "note": "[Compound 148, 4-(2-(((1r,3r)-3-amino-2′-oxospiro[cyclobutane-1,3′-indolin]-1′-yl)methyl)-5-chloro-1H-benzo[d]imidazol-1-yl)butanenitrile]", "EC50": 4.68},
      {"compound": "N#CCCCn1c(CN2c3ccccc3[C@]3(C[C@H](N)C3)C2=O)nc2cc(Cl)ccc21", "note": "[Compound 149, 4-(2-(((1s,3s)-3-amino-2′-oxospiro[cyclobutane-1,3′-indolin]-1′-yl)methyl)-5-chloro-1H-benzo[d]imidazol-1-yl)butanenitrile]", "EC50": 1.2},
      {"compound": "CC(=O)OCCOC(=O)N1CCC2(CC1)C(=O)N(Cc1cc3cc(Cl)ccc3n1CCCC#N)c1cnccc12", "note": "[Compound 150, 2-(Acetyloxy)ethyl 1′-{[5-chloro-1-(3-cyanopropyl)-1H-indol-2-yl]methyl}-2′-oxo-1′,2′-dihydro-1H-spiro[piperidine-4,3′-pyrrolo-[2,3-c]pyridine]-1-carboxylate]", "EC50": 0.049},
      {"compound": "CC(C)(O)C(=O)N1CC2(C1)C(=O)N(Cc1cc3cc(Cl)ccc3n1CCCS(C)(=O)=O)c1ccccc12", "note": "[Compound 152, 1′-({5-Chloro-1-[3-(methylsulfonyl)propyl]-1H-indol-2-yl}methyl)-1-(2-hydroxy-2-methylpropanoyl)spiro[azetidine-3,3′-indol]-2′(1′H)-one]", "EC50": 1.58},
      {"compound": "CC(C)(O)C(=O)N1CCC2(CC1)C(=O)N(Cc1c(C(N)=O)c3cc(Cl)ccc3n1CCCCF)c1cnccc12", "note": "[Compound 153, 5-Chloro-1-(4-fluorobutyl)-2-{[1-(2-hydroxy-2-methylpropanoyl)-2′-oxospiro[piperidine-4,3′-pyrrolo[2,3-c]pyridin]-1′(2′H)-yl]methyl}-1H-indole-3-carboxamide]", "EC50": 0.0575},
      {"compound": "CC(C)(O)C(=O)N1CCC2(C1)C(=O)N(Cc1nc3cc(Cl)ccc3n1CCCC#N)c1ccccc12", "note": "(stereo not shown) [Compound 154, 4-(5-Chloro-2-{[1′-(2-hydroxy-2-methylpropanoyl)-2-oxospiro[indole-3,3′-pyrrolidin]-1(2H)-yl]methyl}-1H-benzimidazol-1-yl)butanenitrile]", "EC50": 1.17},
      {"compound": "CC(C)(O)C(=O)N1CCC2(CC1)C(=O)N(Cc1cc3cc(Cl)ccc3n1CCCCO)c1cnccc12", "note": "[Compound 155, 1′-{[5-Chloro-1-(4-hydroxybutyl)-1H-indol-2-yl]methyl}-1 - (2-hydroxy-2-methylpropanoyl)spiro[piperidine-4,3′-pyrrolo[2,3-c]pyridin]-2′(1′H)-one]", "EC50": 0.17},
      {"compound": "CC(C)(C)OC(=O)N1CCC2(CC1)C(=O)N(Cc1c(C(N)=O)c3cc(Cl)ccc3n1CCCCF)c1cnccc12", "note": "[Compound 156, tert-Butyl 1′-{[3-carbamoyl-5-chloro-1-(4-fluorobutyl)-1H-indol-2-yl]methyl}-2′-oxo-1′,2′-dihydro-1H-spiro[piperidine-4,3′-pyrrolo[2,3-c]pyridine]-1-carboxylate]", "EC50": 0.0676},
      {"compound": "CC(C)(C)OC(=O)N1CCC2(C1)C(=O)N(Cc1nc3cc(Cl)ccc3n1CCCC#N)c1ccccc12", "note": "(stereo not shown) [Compound 157, tert-Butyl 1-{[5-chloro-1-(3-cyanopropyl)-1H-benzimidazol-2-yl]methyl}-2-oxo-1,2-dihydro-1′H-spiro[indole-3,3′-pyrrolidine]-1′-carboxylate]", "EC50": 3.98},
      {"compound": "O=C1CC2(C1)C(=O)N(Cc1nc3cc(Cl)ccc3n1CCCCF)c1ccccc12", "note": "[Compound 158, 1-{[5-Chloro-1-(4-fluorobutyl)-1H-benzimidazol-2-yl]methyl}-3H-spiro[cyclobutane-1,3′-indole]-2′,3(1′H)-dione]", "EC50": 0.575}
    ]}
  ]
}
